Read-outs that look alike come from different tables or passages of the source. Non-standard residues stand in square brackets, D forms with d. No end group written: not given here. Abu = CC[C@H](N)C(=O)O
Columns and labels:
[1] = test system: Angiotensin Converting Enzyme (ACE); test: Angiotensin Converting Enzyme (ACE) from Porcine kidney, SIGMA, 8 nM in 100 mM Tris-HCl, 300 mm NaCl, 10 μM Zn, pH 8.3; settings: 37° C.
[2] = proteolytic resistance in pig liver homogenate; assay type: in vitro ADME; settings: for metabolised at 3 h, 0.2 μmol angiotensin/mg liver homogenate / half-life / half-life at 0.2 μmol/mg liver homogenate: pig; for metabolised at 3 h, 0.2 μmol angiotensin/mg liver homogenate / half-life at 0.2 μmol/mg liver homogenate: pig liver homogenate; for metabolised at 3 h, 0.2 μmol angiotensin/mg liver homogenate: read-out: Degradation after 3 h (%)
Protocol: (§1) Angiotensin (wildtype or cyclised analogs, chemically produced [Cyc 4-7] Ang(1-7) or biologically produced [Cyc 4-7] Ang(1-8)) was added to homogenates of pig liver (0.2 μmol angiotensin/mg liver homogenate), pig kidney (0.2 μmol angiotensin/mg kidney homogenate), pig pancreas (0.8 μmol angiotensin/mg pancreas homogenate) or plasma (1 μmol angiotensin/ml) and incubated at 37° C., pH 7.4 or pH 5, for different time periods up to 30 hours. The enzymatic reaction was stopped by 100° C. for 5 min. The remaining amount of intact angiotensin was determined by RP-HPLC with C18-column, mobile phase gradient and 214 nm detection.

[3] = proteolytic resistance in pig kidney homogenate; assay type: in vitro ADME; settings: for metabolised at 3 h, 0.2 μmol angiotensin/mg kidney homogenate / half-life / half-life at 0.2 μmol/mg kidney homogenate: pig; for metabolised at 3 h, 0.2 μmol angiotensin/mg kidney homogenate / half-life at 0.2 μmol/mg kidney homogenate: pig kidney homogenate; for metabolised at 3 h, 0.2 μmol angiotensin/mg kidney homogenate: read-out: Degradation after 3 h (%)
Protocol: as §1

[4] = proteolytic resistance in pig pancreas homogenate; assay type: in vitro ADME; settings: for metabolised at 3 h, 0.8 μmol angiotensin/mg pancreas homogenate: read-out: Degradation after 3 h (%)
Protocol: as §1

[5] = proteolytic resistance in plasma; assay type: in vitro ADME; settings: pH 7.4, 37° C.; for metabolised at 3 h, 1 μmol/ml: read-out: Degradation after 3 h (%)
Protocol: as §1

[6] = target: T1, Angiotensin Converting Enzyme (ACE) from Porcine kidney (Sus scrofa, UniProt F1RRW5); test: resistance against angiotensin converting enzyme (ACE); assay type: in vitro ADME; settings: 50 μM peptide; for breakdown by ACE: 37° C., pH 8.3
T1 construct: Angiotensin Converting Enzyme (ACE) from Porcine kidney, SIGMA; purchased SIGMA; host or cells: porcine kidney (tissue-derived)
T1 sequence (F1RRW5 34-1309): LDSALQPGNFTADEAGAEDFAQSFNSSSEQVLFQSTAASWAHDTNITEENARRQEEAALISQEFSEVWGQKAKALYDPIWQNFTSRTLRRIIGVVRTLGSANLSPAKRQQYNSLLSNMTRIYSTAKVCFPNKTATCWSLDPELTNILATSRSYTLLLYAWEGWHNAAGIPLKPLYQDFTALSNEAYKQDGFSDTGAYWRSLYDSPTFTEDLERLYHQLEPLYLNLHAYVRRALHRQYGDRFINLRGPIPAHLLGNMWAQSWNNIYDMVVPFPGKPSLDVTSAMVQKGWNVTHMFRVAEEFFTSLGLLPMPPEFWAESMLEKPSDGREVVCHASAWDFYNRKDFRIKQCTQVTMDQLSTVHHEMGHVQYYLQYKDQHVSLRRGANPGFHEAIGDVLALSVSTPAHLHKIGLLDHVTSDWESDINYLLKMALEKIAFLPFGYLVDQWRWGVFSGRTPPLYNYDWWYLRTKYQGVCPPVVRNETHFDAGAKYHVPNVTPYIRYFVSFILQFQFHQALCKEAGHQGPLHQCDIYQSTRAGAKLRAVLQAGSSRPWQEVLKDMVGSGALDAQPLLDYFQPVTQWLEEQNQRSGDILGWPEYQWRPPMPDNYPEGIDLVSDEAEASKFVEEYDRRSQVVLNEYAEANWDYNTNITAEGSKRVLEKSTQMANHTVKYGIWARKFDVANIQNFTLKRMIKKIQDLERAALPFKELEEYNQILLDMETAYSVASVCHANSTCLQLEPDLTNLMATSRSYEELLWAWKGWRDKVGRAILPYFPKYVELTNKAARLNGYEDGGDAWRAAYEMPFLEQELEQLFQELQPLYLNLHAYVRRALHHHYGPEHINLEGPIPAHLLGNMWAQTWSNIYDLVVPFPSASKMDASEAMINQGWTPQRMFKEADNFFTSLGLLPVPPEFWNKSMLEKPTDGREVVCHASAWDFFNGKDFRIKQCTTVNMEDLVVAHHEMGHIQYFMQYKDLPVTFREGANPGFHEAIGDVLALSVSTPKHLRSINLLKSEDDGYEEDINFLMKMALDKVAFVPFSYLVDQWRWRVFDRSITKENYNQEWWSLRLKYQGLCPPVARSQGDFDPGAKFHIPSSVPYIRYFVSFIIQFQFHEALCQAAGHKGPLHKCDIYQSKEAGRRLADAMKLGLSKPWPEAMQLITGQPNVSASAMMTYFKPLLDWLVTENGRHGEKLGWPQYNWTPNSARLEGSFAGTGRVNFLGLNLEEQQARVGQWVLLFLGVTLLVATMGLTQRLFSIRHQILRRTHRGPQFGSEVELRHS
Protocol: Angiotensin Converting Enzyme (ACE) from Porcine kidney, SIGMA, was used at 4 nM final concentration, FIGS. 2A and 2B, or at 8 nM final concentration, FIGS. 2C and 2D. Natural Ang(1-7) was purchased from Bachem. All experiments were performed in duplicate in a waterbath at 37° C., incubations were performed in a buffer containing 100 mM Tris-HCl, 300 mm NaCl, 10 μM Zn, pH 8.3. Thioether-ring-containing angiotensin was obtained by bacterial production using L. lactis containing the nisin modification and transporter enzymes, NisBTC. Natural angiotensin(1-7), lanthionine-containing angiotensin(1-7) and methyllanthionine-containing angiotensin(1-7) were each used at a concentration of 50 μM. Both the lanthionine and the methyllanthionine variant had the thioether bridge between positions 4 and 7. The reaction was stopped by 100° C. for 5 minutes and put on ice. Samples were centrifuged for 10 min at 14000 rpm at 4° C. and quantified by RP-HPLC. Identification of the HPLC peaks was performed using Maldi TOF mass spectrometry. All points are the average of two measurements.

[7] = in vivo stability during continuous intravenous infusion in the rat (Maldi TOF of plasma); set-up: species or system Sprague Dawley rat; settings: i.v. infusion 1 mL/hour of 100 μM of each peptide together, sample taken at 120 min
Protocol: Rats (Sprague Dawley) were infused during 2 hours at a speed of 1 mL/hour with a solution containing simultaneously two compounds: both 100 μM natural Ang(1-7) as well as 100 μM methyllanthionine-containing angiotensin(1-7) with the thioether bridge between positions 4 and 7. Methyllanthionine-containing angiotensin(1-7) was prepared using L. lactis expressing lantibiotic enzymes as described in example 1. Maldi TOF analyses were performed on plasma samples as described in example 3. Undiluted sample (upper spectrum, mass peak of 826.06 Da at the arrow) and 100-fold diluted sample (lower spectrum, mass peak of 826.47 Da at the arrow) both gave a peak of the right mass, i.e. corresponding to intact methyllanthionine-containing angiotensin(1-7) (Theoretical mass M+H^+ equals 825.9758). […] In a control experiment mixing natural angiotensin(1-7) ex vivo with rat plasma, allowed subsequent detection of natural angiotensin(1-7) (not shown). Experimental details are mentioned in the text of example 3.
A male Sprague Dawley rat was kept under O2/Isoflurane (1.5-2%) narcosis throughout the study. A jugular vein catheter was applied and connected to a syringe containing 0.9% physiological salt solution. The syringe was mounted onto an infusion pump and the flow rate set to 1 mL/hour. […]

ACE = test: In vivo; settings: cited from earlier work
[8] = test system: Angiotensin Converting Enzyme (ACE); test: Angiotensin Converting Enzyme (ACE) from Porcine kidney, SIGMA, 4 nM in 100 mM Tris-HCl, 300 mm NaCl, 10 μM Zn, pH 8.3; settings: 37° C., up to 26 hour
[9] = pH 7.4, versus linear angiotensin(1-7)
[10] = tissue homogenate, pH 7.4, 37° C.
[11] = pig, pig pancreas homogenate, pH 5.0, 37° C.
[12] = pig, pig pancreas homogenate, pH 7.4, 37° C.

Compound: DRVAIHA
- not cleaved [1]: no breakdown observed

Compound: CC[C@H](C)[C@@H]1NC(=O)[C@H](NC(=O)[C@@H](NC(=O)[C@H](CCCNC(=N)N)NC(=O)[C@@H](N)CC(=O)O)C(C)C)CSC[C@@H](C(=O)O)NC(=O)[C@H](Cc2c[nH]cn2)NC1=O [[Cyc^4-7]Ang(1-7), Asp-Arg-Val-Ala-Ile-His-Ala]
- increase of half-life by ring introduction ([2]; pH 5, versus linear angiotensin(1-7)): 5 fold
- increase of half-life by 4,7-cyclisation [2, 9]: 2 fold
- metabolised at 3 h, 0.2 μmol angiotensin/mg liver homogenate ([2]; pH 5.0, 37° C.): 8%
- metabolised at 3 h, 0.2 μmol angiotensin/mg liver homogenate ([2]; pH 7.4, 37° C.): 82%
- half-life ([2]; tissue homogenate, pH 5.0, 37° C.): 708 min
- half-life [2, 10]: 68 min
- increase of half-life by 4,7-cyclisation [3, 9]: 6 fold
- metabolised at 3 h, 0.2 μmol angiotensin/mg kidney homogenate ([3]; pH 5.0, 37° C.): 4%
- metabolised at 3 h, 0.2 μmol angiotensin/mg kidney homogenate ([3]; pH 7.4, 37° C.): 91%
- half-life ([3]; tissue homogenate, pH 5.0, 37° C., cell printed in hours): > 1440 min
- half-life [3, 10]: 32 min
- Half-life (min) ([4]; pH 5.0, 37° C.): ∞
- increase of half-life by 4,7-cyclisation [4, 9]: more than 18 fold
- metabolised at 3 h, 0.8 μmol angiotensin/mg pancreas homogenate [4, 11]: 6%
- metabolised at 3 h, 0.8 μmol angiotensin/mg pancreas homogenate [4, 12]: 4%
- half-life ([4]; pig, tissue homogenate, pH 7.4, 37° C., cell printed in hours): > 1440 min
- half-life [5]: 926 min
- metabolised at 3 h, 1 μmol/ml [5]: 15%

Compound: DRV[Abu]IHA [methyllanthionine-containing Ang(1-7)]
- formation of Ang(1-5) by incubation with ACE ([6]; 4 nM ACE): did not lead to the appearance of Ang(1-5)
- breakdown by ACE ([6]; 4 nM ACE, 26 hour incubation): no degradation
- detection of intact peptide in plasma by Maldi TOF [7]: detected

Compound: CC[C@H](C)[C@H](NC(=O)[C@H](Cc1ccc(O)cc1)NC(=O)[C@@H](NC(=O)[C@H](CCCNC(=N)N)NC(=O)[C@@H](N)CC(=O)O)C(C)C)C(=O)N[C@@H](Cc1c[nH]cn1)C(=O)N1CCC[C@H]1C(=O)O [Ang(1-7), DRVYIHP, reference compound]
- half-life at 0.2 μmol/mg liver homogenate ([2]; pH 5.0, 37° C.): 153 min
- metabolised at 3 h, 0.2 μmol angiotensin/mg liver homogenate ([2]; pH 5.0, 37° C.): 56%
- half-life at 0.2 μmol/mg liver homogenate ([2]; pH 7.4, 37° C.): 32 min
- metabolised at 3 h, 0.2 μmol angiotensin/mg liver homogenate ([2]; pH 7.4, 37° C.): 100%
- half-life at 0.2 μmol/mg kidney homogenate ([3]; pH 5.0, 37° C.): 28 min
- metabolised at 3 h, 0.2 μmol angiotensin/mg kidney homogenate ([3]; pH 5.0, 37° C.): 98%
- half-life at 0.2 μmol/mg kidney homogenate ([3]; pH 7.4, 37° C.): 5 min
- metabolised at 3 h, 0.2 μmol angiotensin/mg kidney homogenate ([3]; pH 7.4, 37° C.): 100%
- Half-life (min) ([4]; pH 5.0, 37° C.): ∞
- metabolised at 3 h, 0.8 μmol angiotensin/mg pancreas homogenate [4, 11]: 16%
- half-life at 0.8 μmol/mg pancreas homogenate [4, 12]: 81 min
- metabolised at 3 h, 0.8 μmol angiotensin/mg pancreas homogenate [4, 12]: 81%
- half-life at 1 μmol/ml [5]: 166 min
- metabolised at 3 h, 1 μmol/ml [5]: 55%
- formation of Ang(1-5) by incubation with ACE ([6]; 4 nM ACE): resulted in angiotensin(1-5) formation
- breakdown by ACE ([6]; 4 nM ACE, 26 hour incubation): completely broken down
- formation of Ang(1-5) by incubation with ACE ([6]; 8 nM ACE): emergence of angiotensin(1-5)
- breakdown by ACE ([6]; 8 nM ACE): rapidly broken down
- detection of intact peptide in plasma by Maldi TOF [7]: not detected at all

Compound: DRVYIHP
- cleaved bond (ACE): I5-H6
- cleaved bond [8]: I5-H6, major
- cleaved bond [1]: I5-H6, major

Compound: CC[C@H](C)[C@@H]1NC(=O)C(NC(=O)[C@@H](NC(=O)[C@H](CCCNC(=N)N)NC(=O)[C@@H](N)CC(=O)O)C(C)C)C(C)SC[C@@H](C(=O)N[C@@H](Cc2ccccc2)C(=O)O)NC(=O)[C@H](Cc2c[nH]cn2)NC1=O (stereo partly drawn) [[Cyc^4-7]Ang(1-8), Asp-Arg-Val-Abu-Ile-His-Ala-Phe]
- half-life ([2]; pH 7.4, 37° C.): 67 min
- metabolised at 3 h, 0.2 μmol angiotensin/mg liver homogenate ([2]; pH 7.4, 37° C.): 100%
- half-life ([3]; pH 7.4, 37° C.): 7 min
- metabolised at 3 h, 0.2 μmol angiotensin/mg kidney homogenate ([3]; pH 7.4, 37° C.): 100%
- half-life ([4]; pig, pH 7.4, 37° C.): 483 min
- metabolised at 3 h, 0.8 μmol angiotensin/mg pancreas homogenate [4, 12]: 21%

Compound: CC[C@H](C)[C@H](NC(=O)[C@H](Cc1ccc(O)cc1)NC(=O)[C@@H](NC(=O)[C@H](CCCNC(=N)N)NC(=O)[C@@H](N)CC(=O)O)C(C)C)C(=O)N[C@@H](Cc1cnc[nH]1)C(=O)N1CCC[C@H]1C(=O)N[C@@H](Cc1ccccc1)C(=O)O [Ang(1-8), Asp-Arg-Val-Tyr-Ile-His-Pro-Phe, reference compound]
- metabolised at 3 h, 0.2 μmol angiotensin/mg liver homogenate ([2]; pH 7.4, 37° C.): 98%
- metabolised at 3 h, 0.2 μmol angiotensin/mg kidney homogenate ([3]; pH 7.4, 37° C.): 100%
- metabolised at 3 h, 0.8 μmol angiotensin/mg pancreas homogenate [4, 12]: 70%
